Experimental data from ChEMBL document CHEMBL3885861, “Open TG-GATES”.

Organism: Rattus norvegicus
Experiment: Open TG-GATES - Regimen: Daily Repeat
Format: toxicity, organism-based, Sprague-Dawley
Set-up: regimen Daily Repeat, gender Male, age 6 weeks
Settings: in vivo, po, 1000 mg/kg, route gavage, dose level High; for APTT / Bas / Eos / Fbg / Hb / Ht / Lym / MCH / MCHC / MCV / Mono / Neu / PT / Plat / RBC / Ret / WBC: tissue Blood; for KIDNEY_L / KIDNEY_R / KIDNEY_TOTAL: tissue Kidney; for LIVER: tissue Liver; for A/G / ALP / ALT / AST / BUN / CRE / Ca / Cl / DBIL / GLC / IP / K / LDH / Na / PL / RALB / TBIL / TC / TG / TP / gamma-GTP: tissue Plasma

SMILES: CC(C)(S)[C@@H](N)C(=O)O [PENICILLAMINE]
- TERMINAL_BW (72 h, time 3 day): 225.3 g
- APTT (72 h, time 3 day): 20.2 s
- Bas (72 h, time 3 day): 0%
- Eos (72 h, time 3 day): 1.2%
- Fbg (72 h, time 3 day): 286.4 mg/dL
- Hb (72 h, time 3 day): 13.2 g/dL
- Ht (72 h, time 3 day): 40.3%
- Lym (72 h, time 3 day): 78.6%
- MCH (72 h, time 3 day): 20.1 pg
- MCHC (72 h, time 3 day): 32.7%
- MCV (72 h, time 3 day): 61.6 fL
- Mono (72 h, time 3 day): 2.6%
- Neu (72 h, time 3 day): 16.8%
- PT (72 h, time 3 day): 14.4 s
- Plat (72 h, time 3 day): 121.8 x10_4/uL
- RBC (72 h, time 3 day): 657.4 x10_4/ul
- Ret (72 h, time 3 day): 6.2%
- WBC (72 h, time 3 day): 87.8 x10_2/uL
- KIDNEY_L (72 h, time 3 day): 1 g
- KIDNEY_R (72 h, time 3 day): 1 g
- KIDNEY_TOTAL (72 h, time 3 day): 2 g
- LIVER (72 h, time 3 day): 9.8 g
- A/G (72 h, time 3 day): 1
- ALP (72 h, time 3 day): 1073 IU/L
- ALT (72 h, time 3 day): 38 IU/L
- AST (72 h, time 3 day): 60.8 IU/L
- BUN (72 h, time 3 day): 13.2 mg/dL
- CRE (72 h, time 3 day): 0.2 mg/dL
- Ca (72 h, time 3 day): 10.7 mg/dL
- Cl (72 h, time 3 day): 105.8 meq/L
- DBIL (72 h, time 3 day): 0.012 mg/dL
- GLC (72 h, time 3 day): 166 mg/dL
- IP (72 h, time 3 day): 7.5 mg/dL
- K (72 h, time 3 day): 4.1 meq/L
- LDH (72 h, time 3 day): 94.2 IU/L
- Na (72 h, time 3 day): 144.2 meq/L
- PL (72 h, time 3 day): 143 mg/dL
- RALB (72 h, time 3 day): 2.8 g/dL
- TBIL (72 h, time 3 day): 0.038 mg/dL
- TC (72 h, time 3 day): 74.8 mg/dL
- TG (72 h, time 3 day): 50.4 mg/dL
- TP (72 h, time 3 day): 5.7 g/dL
- gamma-GTP (72 h, time 3 day): 0.8 IU/L
- TERMINAL_BW ([…], time 7 day): 247.8 g
- TERMINAL_BW ([…], time 14 day): 282 g
- TERMINAL_BW ([…], time 28 day): 342.2 g
- APTT ([…], time 7 day): 21.8 s
- Bas ([…], time 7 day): 0%
- Eos ([…], time 7 day): 1.4%
- Fbg ([…], time 7 day): 452.4 mg/dL
- Hb ([…], time 7 day): 13.2 g/dL
- Ht ([…], time 7 day): 40.6%
- Lym ([…], time 7 day): 79.2%
- MCH ([…], time 7 day): 19.2 pg
- MCHC ([…], time 7 day): 32.5%
- MCV ([…], time 7 day): 59 fL
- Mono ([…], time 7 day): 3%
- Neu ([…], time 7 day): 15%
- PT ([…], time 7 day): 14.6 s
- Plat ([…], time 7 day): 131.3 x10_4/uL
- RBC ([…], time 7 day): 687.8 x10_4/ul
- Ret ([…], time 7 day): 4.6%
- WBC ([…], time 7 day): 104.2 x10_2/uL
- APTT ([…], time 14 day): 22.3 s
- Bas ([…], time 14 day): 0%
- Eos ([…], time 14 day): 1.2%
- Fbg ([…], time 14 day): 520.8 mg/dL
- Hb ([…], time 14 day): 13.1 g/dL
- Ht ([…], time 14 day): 39.8%
- Lym ([…], time 14 day): 82.6%
- MCH ([…], time 14 day): 18.7 pg
- MCHC ([…], time 14 day): 32.9%
- MCV ([…], time 14 day): 56.8 fL
- Mono ([…], time 14 day): 2.2%
- Neu ([…], time 14 day): 13.2%
- PT ([…], time 14 day): 15.3 s
- Plat ([…], time 14 day): 164 x10_4/uL
- RBC ([…], time 14 day): 701 x10_4/ul
- Ret ([…], time 14 day): 4.9%
- WBC ([…], time 14 day): 115.3 x10_2/uL
- APTT ([…], time 28 day): 17.8 s
- Bas ([…], time 28 day): 0.4%
- Eos ([…], time 28 day): 1.8%
- Fbg ([…], time 28 day): 646.8 mg/dL
- Hb ([…], time 28 day): 12.1 g/dL
- Ht ([…], time 28 day): 37.3%
- Lym ([…], time 28 day): 71.2%
- MCH ([…], time 28 day): 16.1 pg
- MCHC ([…], time 28 day): 32.4%
- MCV ([…], time 28 day): 49.8 fL
- Mono ([…], time 28 day): 4.2%
- Neu ([…], time 28 day): 21.6%
- PT ([…], time 28 day): 15.7 s
- Plat ([…], time 28 day): 156.3 x10_4/uL
- RBC ([…], time 28 day): 749.2 x10_4/ul
- Ret ([…], time 28 day): 5.6%
- WBC ([…], time 28 day): 153.3 x10_2/uL
- KIDNEY_L ([…], time 7 day): 1.1 g
- KIDNEY_R ([…], time 7 day): 1.1 g
- KIDNEY_TOTAL ([…], time 7 day): 2.1 g
- KIDNEY_L ([…], time 14 day): 1.2 g
- KIDNEY_R ([…], time 14 day): 1.2 g
- KIDNEY_TOTAL ([…], time 14 day): 2.3 g
- KIDNEY_L ([…], time 28 day): 1.4 g
- KIDNEY_R ([…], time 28 day): 1.4 g
- KIDNEY_TOTAL ([…], time 28 day): 2.8 g
- LIVER ([…], time 7 day): 10.7 g
- LIVER ([…], time 14 day): 11.8 g
- LIVER ([…], time 28 day): 14.6 g
- A/G ([…], time 7 day): 0.9
- ALP ([…], time 7 day): 1010.8 IU/L
- ALT ([…], time 7 day): 37 IU/L
- AST ([…], time 7 day): 49.6 IU/L
- BUN ([…], time 7 day): 15.2 mg/dL
- CRE ([…], time 7 day): 0.2 mg/dL
- Ca ([…], time 7 day): 10.8 mg/dL
- Cl ([…], time 7 day): 104.4 meq/L
- DBIL ([…], time 7 day): 0.016 mg/dL
- GLC ([…], time 7 day): 169.2 mg/dL
- IP ([…], time 7 day): 6.9 mg/dL
- K ([…], time 7 day): 3.8 meq/L
- LDH ([…], time 7 day): 72.4 IU/L
- Na ([…], time 7 day): 142.4 meq/L
- PL ([…], time 7 day): 156.4 mg/dL
- RALB ([…], time 7 day): 2.8 g/dL
- TBIL ([…], time 7 day): 0.066 mg/dL
- TC ([…], time 7 day): 86.8 mg/dL
- TG ([…], time 7 day): 59.2 mg/dL
- TP ([…], time 7 day): 5.9 g/dL
- gamma-GTP ([…], time 7 day): 1 IU/L
- A/G ([…], time 14 day): 0.9
- ALP ([…], time 14 day): 881.6 IU/L
- ALT ([…], time 14 day): 37.2 IU/L
- AST ([…], time 14 day): 52.4 IU/L
- BUN ([…], time 14 day): 13 mg/dL
- CRE ([…], time 14 day): 0.2 mg/dL
- Ca ([…], time 14 day): 10.7 mg/dL
- Cl ([…], time 14 day): 105.4 meq/L
- DBIL ([…], time 14 day): 0.008 mg/dL
- GLC ([…], time 14 day): 174.6 mg/dL
- IP ([…], time 14 day): 6.7 mg/dL
- K ([…], time 14 day): 3.8 meq/L
- LDH ([…], time 14 day): 79.6 IU/L
- Na ([…], time 14 day): 142.8 meq/L
- PL ([…], time 14 day): 148.6 mg/dL
- RALB ([…], time 14 day): 2.7 g/dL
- TBIL ([…], time 14 day): 0.058 mg/dL
- TC ([…], time 14 day): 81.6 mg/dL
- TG ([…], time 14 day): 43.8 mg/dL
- TP ([…], time 14 day): 5.8 g/dL
- gamma-GTP ([…], time 14 day): 1 IU/L
- A/G ([…], time 28 day): 0.8
- ALP ([…], time 28 day): 458.6 IU/L
- ALT ([…], time 28 day): 26.8 IU/L
- AST ([…], time 28 day): 43.6 IU/L
- BUN ([…], time 28 day): 14.2 mg/dL
- CRE ([…], time 28 day): 0.2 mg/dL
- Ca ([…], time 28 day): 10.5 mg/dL
- Cl ([…], time 28 day): 105 meq/L
- DBIL ([…], time 28 day): 0.02 mg/dL
- GLC ([…], time 28 day): 162.4 mg/dL
- IP ([…], time 28 day): 6.5 mg/dL
- K ([…], time 28 day): 4 meq/L
- LDH ([…], time 28 day): 70.4 IU/L
- Na ([…], time 28 day): 144 meq/L
- PL ([…], time 28 day): 137.6 mg/dL
- RALB ([…], time 28 day): 2.7 g/dL
- TBIL ([…], time 28 day): 0.1 mg/dL
- TC ([…], time 28 day): 77.2 mg/dL
- TG ([…], time 28 day): 45.4 mg/dL
- TP ([…], time 28 day): 5.9 g/dL
- gamma-GTP ([…], time 28 day): 1.6 IU/L
